The results in this text go back to patent US8497278B2, “Imidazo[1,2-a]pyridine compounds” (priority 2008, dated 2013).

The structures appear in SMILES notation.

One assay relates to rhesus monkeys. Briefly: Rhesus monkey conflict test. The format is in vivo. The conditions noted are these: cumulative dosing. From the text:
Conflict protocol: The conflict procedure is a well established operant conditioning approach to evaluate anxiolytic-like effects of test compounds. In this procedure, positively-reinforced behavior is suppressed by response-contingent administration of a noxious stimulus (i.e., mild electric shock). Compounds with anxiolytic effects in humans (e.g., benzodiazepines) characteristically increase rates of responding that are suppressed by shock and are referred to as anti-conflict or anxiolytic-like effects. […] In addition to anxiolytic-like effects, conflict procedures also provide an assessment of the ability of the animal to perform operant lever pressing. This is typically assessed by including lever pressing in the absence of the noxious stimulus. Most anxiolytic compounds will decrease rates of responding in the absence of shock at doses higher than those that induce anxiolytic-like effects. The effects contributing to anxiolytic-induced decreases in non-suppressed responding are not well understood, but likely consist of a combination of motor co-ordination deficits and sedative effects.
Adult rhesus monkeys were used in these studies (n=1-4). Weights of the monkeys ranged from 6.2 to 10.5 kg. The animals had been previously trained using the conflict procedure. Animals were maintained at 85-95% of their free-feeding weights by manipulation of food intake. Monkeys were individually housed with water available ad libitum, and maintained on a 12 hour lights-on/12 hour lights-off cycle (lights on at 0600 a.m.). Monkeys received Harlan Teklad diet (15% Primate Diet) as well as supplemental feeding (fruits, vegetables, and commercially available primate treats) daily. They were also given toys and video enrichment when not in an experimental session. Each animal was prepared prior to the study with a chronic indwelling venous catheter for drug delivery. A polyvinyl chloride catheter was implanted in a jugular, femoral or brachial vein under isoflurane anesthesia and aseptic conditions. The proximal end of the catheter terminated above the right atrium, and the distal end was passed subcutaneously to exit in the midscapular region. Experimental sessions began 5-7 days following surgery. Catheters had been implanted approximately 3 months to 1 year prior to the initiation of the study. During experimental sessions, monkeys were seated in primate chairs that were placed in ventilated sound-attenuating chambers. A single response lever was mounted on the wall of the chamber in front of the monkey. Each press of a lever produced an audible click and was recorded as a response via electromechanical equipment, a computer interface, and PC with specialized software. Food pellets could be delivered into a tray located next to the lever. Mild electric shock could be delivered to the bottom of the feet via brass electrodes that were fitted to shoes. Red and green lights mounted above the levers could be illuminated to serve as visual stimuli.
Monkeys were trained under a multiple schedule of food reinforcement adapted from Spealman (1979). A daily session consisted of 4 cycles, each preceded by a 10-min time out period in which all lights in the chamber were off and responding had no programmed consequences. Each cycle consisted of two components, component 1 and 2. Component 1 was signaled by red stimulus lights and consisted of an 18-response schedule (FR18) of food pellet delivery (i.e., the animal receives a food pellet following 18 responses). Component 2, signaled by green stimulus lights, followed immediately and consisted of the FR18 schedule of food delivery combined with a FR20 schedule of foot shock delivery (1.5-3.0 mA, adjusted for each monkey based on individual performance, 0.25 sec duration). Delivery of a food pellet (FR18 schedule) was followed by a 10 sec time out in which responses had no programmed consequences. […]

The test system of assay [1] is central benzodiazepine receptors. Briefly: Central benzodiazepine receptor binding (test of Speth et al.). To be noted: 1000 nM of the compound. In short, it runs like this:
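Values are percent inhibition of central benzodiazepine receptor binding at 1000 nM compound (initial single-point screen at 1.0E-09, 1.0E-07 and 1.0E-05 M). Speth et al. binding test; nonspecific binding defined with excess unlabelled ligand and subtracted from total.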

In assay [2] the target is T1, α2 subtype containing GABA-A receptors (Homo sapiens, UniProt P18507+P47869).
T1 construct: expressed in transfected cells; host or cells: Xenopus laevis oocytes, cRNA injected
T1 sequence (P47869 29-451): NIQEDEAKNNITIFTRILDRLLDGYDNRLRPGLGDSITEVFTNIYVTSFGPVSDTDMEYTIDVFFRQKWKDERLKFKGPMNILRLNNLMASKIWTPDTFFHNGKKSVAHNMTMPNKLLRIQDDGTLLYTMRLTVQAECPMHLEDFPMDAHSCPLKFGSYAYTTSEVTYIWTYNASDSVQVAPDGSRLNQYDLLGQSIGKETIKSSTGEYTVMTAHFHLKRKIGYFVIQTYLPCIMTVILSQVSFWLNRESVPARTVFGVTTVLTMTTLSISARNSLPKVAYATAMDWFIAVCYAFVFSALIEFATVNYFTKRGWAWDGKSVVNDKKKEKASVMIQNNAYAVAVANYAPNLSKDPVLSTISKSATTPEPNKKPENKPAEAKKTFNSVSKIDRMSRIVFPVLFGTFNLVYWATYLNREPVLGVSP
T1 sequence (P28472 26-473 partner): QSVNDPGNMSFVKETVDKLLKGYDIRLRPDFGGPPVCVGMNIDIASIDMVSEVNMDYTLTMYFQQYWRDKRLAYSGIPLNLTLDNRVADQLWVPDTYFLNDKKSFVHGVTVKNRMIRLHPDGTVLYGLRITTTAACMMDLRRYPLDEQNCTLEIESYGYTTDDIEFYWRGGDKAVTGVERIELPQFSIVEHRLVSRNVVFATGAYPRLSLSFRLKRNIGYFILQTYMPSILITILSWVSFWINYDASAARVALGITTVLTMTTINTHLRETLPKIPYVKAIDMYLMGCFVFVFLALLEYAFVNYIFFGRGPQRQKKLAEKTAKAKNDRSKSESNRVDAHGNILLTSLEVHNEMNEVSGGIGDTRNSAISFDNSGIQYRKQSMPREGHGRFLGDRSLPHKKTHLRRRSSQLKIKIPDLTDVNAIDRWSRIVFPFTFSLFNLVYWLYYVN
T1 sequence (P18507 40-475): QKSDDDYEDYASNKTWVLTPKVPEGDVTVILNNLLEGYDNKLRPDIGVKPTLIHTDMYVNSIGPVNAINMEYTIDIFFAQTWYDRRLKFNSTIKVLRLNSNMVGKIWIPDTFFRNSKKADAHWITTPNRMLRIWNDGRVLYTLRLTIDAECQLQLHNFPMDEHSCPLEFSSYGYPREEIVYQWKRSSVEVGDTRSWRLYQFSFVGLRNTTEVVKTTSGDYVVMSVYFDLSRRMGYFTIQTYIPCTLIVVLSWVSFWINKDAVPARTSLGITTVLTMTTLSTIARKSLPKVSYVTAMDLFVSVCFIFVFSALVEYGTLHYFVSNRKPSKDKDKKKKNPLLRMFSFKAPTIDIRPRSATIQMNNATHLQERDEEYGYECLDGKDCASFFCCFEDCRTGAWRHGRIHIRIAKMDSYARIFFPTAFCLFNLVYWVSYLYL
Briefly: Two-electrode voltage clamp electrophysiology in Xenopus oocytes, potentiation of GABA EC20 response, α2. The class given is cell-based. To be noted: 100 nM compound, read-out: Percentage of potentiation alpha2. The method, boiled down: (§1)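 Stage 5–6 Xenopus oocytes were injected with cRNA for human α subunit plus β3 and γ2L, then voltage-clamped at −80 mV under ND96 perfusion. Each received 60 μM GABA (EC20), a 1 μM chlordiazepoxide control, and then a single 100 nM compound application.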

Assay [3] addresses T2, α1 subtype containing GABA-A receptors (Homo sapiens, UniProt P14867+P18507).
T2 construct: expressed in transfected cells; host or cells: Xenopus laevis oocytes, cRNA injected
Briefly: Two-electrode voltage clamp electrophysiology in Xenopus oocytes, potentiation of GABA EC20 response, α1. The format is cell-based. The conditions noted are these: 100 nM compound, read-out: Percentage of potentiation alpha1. The method, boiled down: as §1

T2 sequence (P14867 28-456): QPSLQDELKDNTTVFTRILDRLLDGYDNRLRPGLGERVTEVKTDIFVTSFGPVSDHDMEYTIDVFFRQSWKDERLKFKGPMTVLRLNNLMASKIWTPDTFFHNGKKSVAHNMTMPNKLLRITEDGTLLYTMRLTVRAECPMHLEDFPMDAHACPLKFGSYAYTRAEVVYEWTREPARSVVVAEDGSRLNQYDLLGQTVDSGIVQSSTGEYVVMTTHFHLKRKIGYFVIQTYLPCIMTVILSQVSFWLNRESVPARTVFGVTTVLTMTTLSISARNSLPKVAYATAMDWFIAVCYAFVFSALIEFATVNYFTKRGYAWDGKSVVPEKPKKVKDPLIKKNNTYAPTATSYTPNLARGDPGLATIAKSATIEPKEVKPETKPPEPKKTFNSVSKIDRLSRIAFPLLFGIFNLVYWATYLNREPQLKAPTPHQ
T2 sequence (P28472 26-473 partner): as the sequence (P28472 26-473 partner) above
T2 sequence (P18507 40-475): as the sequence (P18507 40-475) above

For `Cc1nnc2n1-c1ccc(Cl)cc1C(c1ccccc1)=NC2` [Alprazolam, reference compound], the “Non-Suppressed Response Rates Mean ± S.E.M.” value in the assay on rhesus monkeys (0.003 mg/kg IV) turned out to be 2.18 ± 0.26 Responses/Second; in the assay on rhesus monkeys (0.01 mg/kg IV), 2.62 ± 0.32 Responses/Second; with rhesus monkeys (0.03 mg/kg IV), 2.38 ± 0.36 Responses/Second; with rhesus monkeys (0.1 mg/kg IV) it was 1.16 ± 0.26 Responses/Second. In addition, the “Suppressed Response Rates Mean ± S.E.M.” value is 0.04 ± 0.02 Responses/Second in the assay on rhesus monkeys (0.003 mg/kg IV), 0.76 ± 0.26 Responses/Second in the assay on rhesus monkeys (0.01 mg/kg IV), 2.28 ± 0.55 Responses/Second with rhesus monkeys (0.03 mg/kg IV) and 1.44 ± 0.57 Responses/Second with rhesus monkeys (0.1 mg/kg IV).
With `CCNCc1ccnc(NCc2c(-c3ccc(F)cc3)nc3ccc(C)cn23)n1` [Compound 196, 4-((ethylamino)methyl)-N-((2-(4-fluorophenyl)-6-methylimidazo[1,2-a]pyridin-3-yl)methyl)pyrimidin-2-amine], the “% Inhibition at 1000 nM for CBZD” value in assay [1] was “++ (percentage of inhibition of central BZD site binding is greater than 80% in the presence of 1000 nM of the compound)”. Besides, the activation at 0.1 µM in assay [2] and in assay [3] was at least 50% in each case.
In the case of `Fc1ccc(-c2nc3ccc(Cl)cn3c2CNc2nccc(CN3CCCC3)n2)cc1` [Compound 198, N-((6-chloro-2-(4-fluorophenyl)imidazo[1,2-a]pyridin-3-yl)methyl)-4-(pyrrolidin-1-ylmethyl)pyrimidin-2-amine], the “% Inhibition at 1000 nM for CBZD” value in assay [1] is given as “++ (percentage of inhibition of central BZD site binding is greater than 80% in the presence of 1000 nM of the compound)”. In addition, the activation at 0.1 µM in assay [2] and in assay [3] was at least 50% in each case.
In the case of `Cc1nnc(Cc2c(-c3ccc(Cl)cc3)nc3ccccn23)o1` [Compound 204, 2-((2-(4-chlorophenyl)imidazo[1,2-a]pyridin-3-yl)methyl)-5-methyl-1,3,4-oxadiazole], the “% Inhibition at 1000 nM for CBZD” value in assay [1] is on record as “++ (percentage of inhibition of central BZD site binding is greater than 80% in the presence of 1000 nM of the compound)”. In addition, the activation at 0.1 µM is 10 to 50% in assay [2] and -10 to 10% in assay [3].
On to `Cn1ccnc1Cc1c(-c2ccc(Cl)cc2)nc2ccccn12` [Compound 206, 2-(4-chlorophenyl)-3-((1-methyl-1H-imidazol-2-yl)methyl)imidazo[1,2-a]pyridine], for which the “% Inhibition at 1000 nM for CBZD” value in assay [1] is reported as “++ (percentage of inhibition of central BZD site binding is greater than 80% in the presence of 1000 nM of the compound)”. In addition, the activation at 0.1 µM in assay [2] and in assay [3] was at least 50% each time.
Regarding `Cn1ncnc1Cc1c(-c2ccc(Cl)cc2)nc2ccccn12` [Compound 207, 2-(4-Chlorophenyl)-3-((1-methyl-1H-1,2,4-triazol-5-yl)methyl)imidazo[1,2-a]pyridine], the “% Inhibition at 1000 nM for CBZD” value in assay [1] is on record as “++ (percentage of inhibition of central BZD site binding is greater than 80% in the presence of 1000 nM of the compound)”. The activation at 0.1 µM in assay [2] and in assay [3] was 10 to 50% each time.
Consider `Cc1nn(C)nc1Cc1c(-c2ccc(Cl)cc2)nc2ccc(Cl)cn12` [Compound 229, 6-Chloro-2-(4-chlorophenyl)-3-((2,5-dimethyl-2H-1,2,3-triazol-4-yl)methyl)imidazo[1,2-a]pyridine], for which the “% Inhibition at 1000 nM for CBZD” value in assay [1] is “++ (percentage of inhibition of central BZD site binding is greater than 80% in the presence of 1000 nM of the compound)”. Further, the activation at 0.1 µM in assay [2] and in assay [3] was 10 to 50% each time.
On to `Cc1nnc(Cc2c(-c3ccc(Cl)cc3)nc3ccccn23)[nH]1` [Compound 233, 2-(4-chlorophenyl)-3-((5-methyl-4H-1,2,4-triazol-3-yl)methyl)imidazo[1,2-a]pyridine], for which the “% Inhibition at 1000 nM for CBZD” value in assay [1] is listed as “++ (percentage of inhibition of central BZD site binding is greater than 80% in the presence of 1000 nM of the compound)”. In addition, the activation at 0.1 µM is at least 50% in assay [2] and 10 to 50% in assay [3].
Consider `Cc1nnc(Cc2c(-c3ccccc3)nc3ccc(Cl)cn23)[nH]1` [Compound 234, 6-chloro-3-((5-methyl-4H-1,2,4-triazol-3-yl)methyl)-2-phenylimidazo[1,2-a]pyridine], for which the “% Inhibition at 1000 nM for CBZD” value in assay [1] is listed as “++ (percentage of inhibition of central BZD site binding is greater than 80% in the presence of 1000 nM of the compound)”. The activation at 0.1 µM was at least 50% in assay [2] and 10 to 50% in assay [3].
As for `CN(C)CCNC1=CC(=O)N(Cc2c(-c3ccc(Cl)cc3)nc3ccccn23)C1` [Compound 237, 1-((2-(4-chlorophenyl)imidazo[1,2-a]pyridin-3-yl)methyl)-4-(2-(dimethylamino)ethylamino)-1H-pyrrol-2(5H)-one], the “% Inhibition at 1000 nM for CBZD” value in assay [1] is “++ (percentage of inhibition of central BZD site binding is greater than 80% in the presence of 1000 nM of the compound)”. For the same molecule, the activation at 0.1 µM in assay [2] was 10 to 50%; in assay [3], -10 to 10%.
Regarding `CN1CCN(C2=CC(=O)N(Cc3c(-c4ccc(Cl)cc4)nc4ccccn34)C2)CC1` [Compound 238, 1-((2-(4-chlorophenyl)imidazo[1,2-a]pyridin-3-yl)methyl)-4-(4-methylpiperazin-1-yl)-1H-pyrrol-2(5H)-one], in assay [1], the “% Inhibition at 1000 nM for CBZD” value is given as “++ (percentage of inhibition of central BZD site binding is greater than 80% in the presence of 1000 nM of the compound)”. The activation at 0.1 µM in assay [2] and in assay [3] was 10 to 50% each time.
For `CN(C)CCNc1cc(Cc2c(-c3ccc(Cl)cc3)nc3ccccn23)ncn1` [Compound 243, N^1-(6-((2-(4-chlorophenyl)imidazo[1,2-a]pyridin-3-yl)methyl)pyrimidin-4-yl)-N^2,N^2-dimethylethane-1,2-diamine], the “% Inhibition at 1000 nM for CBZD” value in assay [1] is “++ (percentage of inhibition of central BZD site binding is greater than 80% in the presence of 1000 nM of the compound)”. Besides, the activation at 0.1 µM in assay [2] and in assay [3] was 10 to 50% each time.
